Like-named read-outs stand apart in the source and are kept apart here.
Legend:
[1] = test system: SEQ ID NO:3; conditions: male, Sprague-Dawley, rat, in vivo, ip, 250 mg/kg
Description: (§1) For each target preparation, frozen liver was homogenized and lysed in TRIZOL reagent (Life Technologies, Gaithersburg Md.) following the modifications for liver RNA isolation. Messenger RNA was isolated using an OLIGOTEX kit (QIAGEN) and labeled with either Cy3- or Cy5-labeled primers (Operon Technologies, Alameda Calif.) using the GEMBRIGHT labeling kit (Incyte Pharmaceuticals). […] Quantitative and differential expression pattern control cDNAs were added to each labeling reaction. Labeled cDNA was treated with 0.5 M sodium bicarbonate. (pH 9.2) for 20 min at 85 ° C. to degrade the RNA and purified using two successive CHROMA SPIN 30 gel filtration spin columns (Clontech, Palo Alto Calif.). Cy3-labeled control sample and Cy5-labeled experimental sample were combined and precipitated in glycogen, sodium acetate, and ethanol.
(§2) Hybridizations were carried out using the methods described by Shalon (supra).
(§3) The microscope used to detect the reporter-labeled hybridization complexes was equipped with an Innova 70 mixed gas 10 W laser (Coherent Lasers, Santa Clara Calif.) capable of generating spectral lines at 488 nm for excitation of Cy3, and 632 nm for excitation of Cy5. The excitation laser light was focused on the array using a 20×microscope objective (Nikon, Melville N.Y.). The slide containing the array was placed on a computer-controlled X-Y stage on the microscope and raster-scanned past the objective. The 1.8 cm×1.8 cm array used in the present example was scanned with a resolution of 20 micrometers.
(§4) In two separate scans, a mixed gas multiline laser excited the two fluorophores sequentially. Emitted light was split, based on wavelength, into two photomultiplier tube detectors (PMT R1477, Hamamatsu Photonics, San Jose Calif.) corresponding to the two fluorophores. Appropriate filters positioned between the array and the photomultiplier tubes were used to filter the signals. The emission maxima of the fluorophores used were 565 nm for Cy3 and 650 nm for Cy5. Each array was typically scanned twice, one scan per fluorophore using the appropriate filters at the laser source, although the apparatus was capable of recording the spectra from both fluorophores simultaneously.
(§5) When two probes from different sources (e.g., representing test and control cells), each labeled with a different fluorophore, are hybridized to a single array for the purpose of identifying genes that are differentially expressed, the calibration was done by labeling samples of the calibrating cDNA with the two fluorophores and adding identical amounts of each to the hybridization mixture.
(§6) A grid was superimposed over the fluorescence signal image such that the signal from each spot was centered in each element of the grid. The fluorescence signal within each element was then integrated to obtain a numerical value corresponding to the average intensity of the signal. The software used for signal analysis was the GEMTOOLS gene expression analysis program (Incyte Pharmaceuticals).

[2] = test system: SEQ ID NO:2; conditions: male, Sprague-Dawley, rat, in vivo, ip, 250 mg/kg
Description: as §1, §2, §3, §4, §5, §6

[3] = test system: SEQ ID NO:8; conditions: male, Sprague-Dawley, rat, in vivo, ip, 250 mg/kg
Description: as §1, §2, §3, §4, §5, §6

[4] = test system: SEQ ID NO:5; conditions: male, Sprague-Dawley, rat, in vivo, ip, 250 mg/kg
Description: as §1, §2, §3, §4, §5, §6

[5] = test system: SEQ ID NO:4; test: microarray gene expression in treated rat liver; assay type: in vivo; conditions: CLO-treated rat liver, 250 mg/kg bw i.p. single dose
Description: as §1, §2, §3, §4, §5, §6

[6] = test system: P450 4A; test: microarray gene expression in treated rat liver; assay type: in vivo; conditions: clofibrate-treated rat liver, 250 mg/kg bw i.p. single dose
Description: as §1, §2, §3, §4, §5, §6

[7] = test system: P450 LA-omega 4A3; test: microarray gene expression in treated rat liver; assay type: in vivo; conditions: clofibrate-treated rat liver, 250 mg/kg bw i.p. single dose
Description: as §1, §2, §3, §4, §5, §6

[8] = test system: P450 3A2; test: microarray gene expression in treated rat liver; assay type: in vivo; conditions: clofibrate-treated rat liver, 250 mg/kg bw i.p. single dose
Description: as §1, §2, §3, §4, §5, §6

- Gene expression (x-fold change) of SEQ ID NO: 3 ([1]; 12 h): 1.3 x-fold change
- Gene expression (x-fold change) of SEQ ID NO: 3 ([1]; 24 h): 2 x-fold change
- Gene expression (x-fold change) of SEQ ID NO: 3 ([1]; 3 days): 1.3 x-fold change
- Gene expression (x-fold change) of SEQ ID NO: 3 ([1]; 7 days): 1.5 x-fold change
- Gene expression (x-fold change) of SEQ ID NO: 3 ([1]; 28 days): 1.5 x-fold change
- Gene expression (x-fold change) of SEQ ID NO: 2 ([2]; 12 h): 2.6 x-fold change
- Gene expression (x-fold change) of SEQ ID NO: 2 ([2]; 24 h): 1.4 x-fold change
- Gene expression (x-fold change) of SEQ ID NO: 2 ([2]; 3 days): 0.5 x-fold change
- Gene expression (x-fold change) of SEQ ID NO: 2 ([2]; 7 days): 1.1 x-fold change
- Gene expression (x-fold change) of SEQ ID NO: 2 ([2]; 28 days): 1.2 x-fold change
- Gene expression (x-fold change) of SEQ ID NO: 8 ([3]; 12 h): 2.6 x-fold change
- Gene expression (x-fold change) of SEQ ID NO: 8 ([3]; 24 h): 1.7 x-fold change
- Gene expression (x-fold change) of SEQ ID NO: 8 ([3]; 3 days): 1.3 x-fold change
- Gene expression (x-fold change) of SEQ ID NO: 8 ([3]; 7 days): 1.3 x-fold change
- Gene expression (x-fold change) of SEQ ID NO: 8 ([3]; 28 days): 1.4 x-fold change
- Gene expression (x-fold change) of SEQ ID NO: 5 ([4]; 12 h): 1.7 x-fold change
- Gene expression (x-fold change) of SEQ ID NO: 5 ([4]; 24 h): 2.9 x-fold change
- Gene expression (x-fold change) of SEQ ID NO: 5 ([4]; 3 days): 1.6 x-fold change
- Gene expression (x-fold change) of SEQ ID NO: 5 ([4]; 7 days): 1.5 x-fold change
- Gene expression (x-fold change) of SEQ ID NO: 5 ([4]; 28 days): 1.2 x-fold change
- Gene expression (x-fold change) of SEQ ID NO: 4 ([5]; 12 hours): 2 x-fold change
- Gene expression (x-fold change) of SEQ ID NO: 4 ([5]; 24 hours): 0.36 x-fold change
- Gene expression (x-fold change) of SEQ ID NO: 4 ([5]; 3 days): 0.47 x-fold change
- Gene expression (x-fold change) of SEQ ID NO: 4 ([5]; 7 days): 0.26 x-fold change
- Gene expression (x-fold change) of SEQ ID NO: 4 ([5]; 28 days): 0.30 x-fold change
- Gene expression (x-fold change) of P450 4A ([6]; 12 hours): 7.0 x-fold change
- Gene expression (x-fold change) of P450 4A ([6]; 24 hours): 16.6 x-fold change
- Gene expression (x-fold change) of P450 4A ([6]; 3 days): 1.4 x-fold change
- Gene expression (x-fold change) of P450 4A ([6]; 7 days): 0.5 x-fold change
- Gene expression (x-fold change) of P450 4A ([6]; 28 days): 1.3 x-fold change
- Gene expression (x-fold change) of P450 LA-omega 4A3 ([7]; 12 hours): 14.8 x-fold change
- Gene expression (x-fold change) of P450 LA-omega 4A3 ([7]; 24 hours): 26.6 x-fold change
- Gene expression (x-fold change) of P450 LA-omega 4A3 ([7]; 3 days): 1.1 x-fold change
- Gene expression (x-fold change) of P450 LA-omega 4A3 ([7]; 7 days): 0.5 x-fold change
- Gene expression (x-fold change) of P450 LA-omega 4A3 ([7]; 28 days): 0.47 x-fold change
- Gene expression (x-fold change) of P450 3A2 ([8]; 12 hours): 0.14 x-fold change
- Gene expression (x-fold change) of P450 3A2 ([8]; 24 hours): 1.2 x-fold change
- Gene expression (x-fold change) of P450 3A2 ([8]; 3 days): 0.63 x-fold change
- Gene expression (x-fold change) of P450 3A2 ([8]; 7 days): 0.50 x-fold change
- Gene expression (x-fold change) of P450 3A2 ([8]; 28 days): 0.45 x-fold change
SMILES: CCOC(=O)C(C)(C)Oc1ccc(Cl)cc1 [clofibrate]

From patent publication US6372431B1, “Mammalian toxicological response markers” (Incyte Genomics, Inc., priority 1999, dated 2002)
